Experimental data reported in patent US5998437A, “Benzimidazole derivatives” (Otsuka Pharmaceutical Co., Ltd., priority 1995, dated 1999).
pIC50: −log10 of the molar value. Read-outs that look alike come from different tables or passages of the source.

Experiments:
rat A10 cells = assay: Activity for inhibiting proliferation of rat A10 cells ([3H]-thymidine uptake); format: cell-based; conditions: read-out: Activity for inhibiting proliferation of rat A10 cells [IC50 (μM)]
Description: (2) Measurement of the Activity for Inhibiting Proliferation of Rat A10 Cells
(§1) Test was conducted by the modified method of N. Morisaki [Atherosclerosis, Vol. 71, (1988), pp. 165-171]. The rat A10 cells (purchased from Dainippon Pharmaceutical Co., Ltd.) were inoculated on a 24 wells immunoplate at a density of 10,000 cells/well, and were cultured in 10% FBS (fetal bovine serum) for 2 days, and in order to introduce the cells into the resting stage, the cells were further cultured in a serum-free medium for 2 days. After that, 1% FBS was added thereto for stimulating the proliferation, of the cells and at the same time, a test compound and 0.5 μCi/well of [^3 H]-thymidine were added. As to the index of synthesized amount of DNA, the quantity of [^3 H]-thymidine being uptaken by the cells was measured at the time of 24 hours after the final cultivation was started.

cGMP-PDE = biological target: T1, cGMP-PDE (Homo sapiens, UniProt O76074); assay: Activity for inhibiting cGMP PDE (PDE partially purified from human platelets, FI fraction); format: biochemical; conditions: 0.4 μM of [3H]-cGMP
T1 construct: Separation and partial purification of PDE (phosphodiesterase) from human platelets; from tissue; host or cells: human platelets (supernatant, DEAE-cellulose FI fraction)
Description: (1) Measurement of the Activity for Inhibiting cGMP PDE
Separation and partial purification of PDE (phosphodiesterase) from human platelets, and measurement of the activity for inhibiting cGMP PDE were conducted by the method of Hidaka, et al. [Biochimica et Biophysica Acta, Vol. 429, (1976), pp. 485-497]. The platelets obtained from human healthy adult were washed, and suspended in TRIS-buffer solution, then said suspension was treated by centrifugal separation, the supernatant was subjected to a DEAE-cellulose treatment and fractionated into FI to FIII fractions by a method of concentration gradient of sodium acetate. Thus obtained FI fraction was used as the sample of cGMP-PDE. The activity for inhibiting cGMP-PDE was measured by using 0.4 μM of [^3 H]-cGMP.

human fibroblast = assay: Activity for inhibiting proliferation of the human fibroblast ([3H]-thymidine uptake); format: cell-based
Description: as §1
(3) Measurement of the Activity for Inhibiting Proliferation of the Human Fibroblast
Similar to the activity for inhibiting proliferation of rat A10 cells as mentioned above, the activity for inhibiting proliferation of the human fibroblast (purchased from Dainippon Pharmaceutical Co., Ltd.) was determined by measuring the uptake amount of [^3 H]-thymidine.

[1] = A10, 1% FBS stimulation, 24 hours

Row | IC50 (cGMP-PDE) [µM] | Structure (SMILES) | IC50 (rat A10 cells; A10, 24 h) [µM] | IC50 (rat A10 cells; [1]) [µM] | pIC50 (human fibroblast)
1 | 0.06 | CN(CCCn1ccc2cc(NC(=O)c3nc4ccc(Cl)cc4n3Cc3ccccc3)ccc21)C1CCCCC1 [Example 4] | – | 0.3 | –
2 | – | O=C(Nc1ccc2c(ccn2CCCn2cccn2)c1)c1nc2ccc(Cl)cc2n1Cc1ccccc1 [Example 6] | – | 0.66 | –
3 | – | O=C(Nc1ccc2c(ccn2CCCn2cncn2)c1)c1nc2ccc(Cl)cc2n1Cc1ccccc1 [Example 7] | – | 0.49 | –
4 | 0.08 | COC(=O)n1ccc2cc(NC(=O)c3nc4ccc(Cl)cc4n3Cc3ccccc3)ccc21 [Example 9] | – | – | –
5 | 0.01 | O=C(NCCCn1ccc2cc(NC(=O)c3nc4ccc(Cl)cc4n3Cc3ccccc3)ccc21)c1cccnc1 [Example 11, 1-benzyl-6-chloro-2-{1-[3-(pyridin-3-ylcarbonylamino)propyl]indol-5-ylaminocarbonyl}benzimidazole] | – | 0.97 | –
6 | – | Cc1noc(C)c1C(=O)NCCCn1ccc2cc(NC(=O)c3nc4ccc(Cl)cc4n3Cc3ccccc3)ccc21 [Example 12] | – | 0.69 | –
7 | – | CC(C)n1nnnc1Cn1ccc2cc(NC(=O)c3nc4ccc(Cl)cc4n3Cc3ccccc3)ccc21 [Example 16] | – | – | 7.31
8 | – | CC(C)c1nccn1CCCn1ccc2cc(CNC(=O)c3nc4ccc(Cl)cc4n3Cc3ccccc3)ccc21 [Example 18] | – | 0.48 | –
9 | 0.12 | N#Cc1cccc(OCCCn2ccc3cc(NC(=O)c4nc5ccc(Cl)cc5n4Cc4ccccc4)ccc32)c1 [Example 25] | – | – | –
10 | < 0.01 | O=C(NCCCN1CCc2cc(NC(=O)c3nc4ccc(Cl)cc4n3Cc3ccccc3)ccc21)c1ccc[nH]1 [Example 28] | – | – | –
11 | < 0.01 | Cc1noc(C)c1C(=O)NCCCN1CCc2cc(NC(=O)c3nc4ccc(Cl)cc4n3Cc3ccccc3)ccc21 [Example 33] | – | 1.27 | 7.38
12 | 0.02 | O=C1CCc2cc(NC(=O)c3nc4ccc(Cl)cc4n3Cc3ccccc3)ccc2N1 [Example 41, 1-benzyl-6-chloro-2-(3,4-dihydro-2(1H)-quinolinon-6-ylaminocarbonyl)benzimidazole] | – | – | –
13 | 0.1 | C=CCN1C(=O)CCc2cc(NC(=O)c3nc4ccc(Cl)cc4n3Cc3ccccc3)ccc21 [Example 42] | – | 0.95 | –
14 | 0.014 | CN(C)CCN(C)CCCN1C(=O)CCc2cc(NC(=O)c3nc4ccc(Cl)cc4n3Cc3ccccc3)ccc21 [Example 44] | – | – | –
15 | – | CC(C)n1nnnc1CN1C(=O)CCc2cc(NC(=O)c3nc4ccc(Cl)cc4n3Cc3ccccc3)ccc21 [Example 45] | – | – | 7.39
16 | < 0.01 | O=C(NCCCN1CCOc2cc(NC(=O)c3nc4ccc(Cl)cc4n3Cc3ccccc3)ccc21)c1ccccn1 [Example 47] | – | 0.67 | 7.68

Row | Structure (SMILES) | IC50 (cGMP-PDE) [µM] | IC50 (rat A10 cells; A10, 24 h) [µM] | IC50 (rat A10 cells; [1]) [µM] | pIC50 (human fibroblast)
17 | O=C(Nc1ccc2[nH]ccc2c1)c1nc2ccc(Cl)cc2n1Cc1ccccc1 [Example 2] | 0.02 | 0.4 | – | –
18 | O=C(Nc1ccc2c(c1)CCN2CCCN1CCC(O)(c2ccccc2)CC1)c1nc2ccc(Cl)cc2n1Cc1ccccc1 [Example 20] | 0.01 | 0.85 | – | –
19 | O=C(Nc1ccc2[nH]ncc2c1)c1nc2ccc(Cl)cc2n1Cc1ccccc1 [Example 21] | 0.02 | – | – | –
20 | O=C(Nc1ccc2[nH]c(=O)ccc2c1)c1nc2ccc(Cl)cc2n1Cc1ccccc1 [Example 46, 1-benzyl-6-chloro-2-[2(1H)-quinolinon-6-ylamino-caronyl]benzimidazole] | < 0.01 | – | – | –
